Data set [1] in a line: Induction of Ptx-mediated cell cycle arrest in human KBV cells assessed as accumulation of cells at Sub-G1 phase at 10 uM incubated for 24 hrs in presence of paclitaxel by flow cytometry analysis (reference value: 1.21 +/- 0.3%). The data set is classed as functional.
Data set [2] in a line: Reversal of multidrug resistance in human KBV Cells assessed as increase in PTX-induced cytotoxicity by measuring cell survival rate at 10 uM incubated for 72 hrs in presence of paclitaxel by MTT assay relative to control. The format is functional. The following applies: read-out: Survival.
The nature of data set [3]: Reversal of multidrug resistance in human KBV Cells assessed as reversal fold of paclitaxel IC50 at 5 uM incubated for 72 hrs in presence of paclitaxel by MTT assay. The data set is classed as functional.
Data set [4] deals with T1, ATP-dependent translocase ABCB1 (Homo sapiens, UniProt P08183). The data set is described as follows: Negative allosteric modulator activity at P-glycoprotein mediated Rhodamine-123 efflux in human KBV cells assessed as increase in intracellular Rhodamine-123 accumulation incubated for 2 hrs in presence of Ptx-C by flow cytometry analysis. The data set is classed as cell-based.
T1 sequence (P08183 whole entry): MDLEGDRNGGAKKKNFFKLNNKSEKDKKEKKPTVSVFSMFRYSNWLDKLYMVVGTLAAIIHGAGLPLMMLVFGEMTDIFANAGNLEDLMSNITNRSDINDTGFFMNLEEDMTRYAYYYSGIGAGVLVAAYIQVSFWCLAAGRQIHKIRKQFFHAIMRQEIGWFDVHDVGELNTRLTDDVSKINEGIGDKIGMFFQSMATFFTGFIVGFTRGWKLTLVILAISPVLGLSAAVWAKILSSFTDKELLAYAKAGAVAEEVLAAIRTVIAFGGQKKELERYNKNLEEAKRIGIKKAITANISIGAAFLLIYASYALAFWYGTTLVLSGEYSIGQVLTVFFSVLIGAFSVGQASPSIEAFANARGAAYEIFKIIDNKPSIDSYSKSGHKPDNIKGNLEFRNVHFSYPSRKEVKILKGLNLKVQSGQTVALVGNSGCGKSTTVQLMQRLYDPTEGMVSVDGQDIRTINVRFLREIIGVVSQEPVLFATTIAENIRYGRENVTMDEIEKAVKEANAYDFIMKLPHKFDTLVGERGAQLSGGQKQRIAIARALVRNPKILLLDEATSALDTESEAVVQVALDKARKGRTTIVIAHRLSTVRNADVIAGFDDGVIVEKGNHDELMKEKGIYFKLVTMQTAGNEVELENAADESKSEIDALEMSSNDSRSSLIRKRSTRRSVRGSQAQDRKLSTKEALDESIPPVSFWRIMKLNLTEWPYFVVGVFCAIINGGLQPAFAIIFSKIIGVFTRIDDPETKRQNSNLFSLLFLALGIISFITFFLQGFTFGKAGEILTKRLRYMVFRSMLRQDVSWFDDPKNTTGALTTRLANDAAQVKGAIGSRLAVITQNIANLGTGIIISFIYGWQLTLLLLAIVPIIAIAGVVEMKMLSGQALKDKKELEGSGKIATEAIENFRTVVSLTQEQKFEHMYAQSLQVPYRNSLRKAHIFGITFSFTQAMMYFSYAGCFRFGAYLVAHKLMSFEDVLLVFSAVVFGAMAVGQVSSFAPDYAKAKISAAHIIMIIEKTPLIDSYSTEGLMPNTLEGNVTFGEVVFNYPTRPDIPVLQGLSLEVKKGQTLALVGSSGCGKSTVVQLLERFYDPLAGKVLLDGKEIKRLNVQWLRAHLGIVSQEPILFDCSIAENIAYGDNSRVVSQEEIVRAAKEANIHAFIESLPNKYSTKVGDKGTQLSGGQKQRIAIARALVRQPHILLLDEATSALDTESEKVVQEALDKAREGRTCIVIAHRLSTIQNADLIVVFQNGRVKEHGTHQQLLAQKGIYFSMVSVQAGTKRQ

Data set [5] in a line: Induction of cell cycle arrest in human KBV cells assessed as accumulation of cells at Sub-G1 phase at 10 uM incubated for 24 hrs by flow cytometry analysis (reference value: 1.24 +/- 0.14%). The data set is classed as functional.
The nature of data set [6]: Chemo-sensitizing activity against Ptx-resistance human KBV cells xenografted in BALB/c mouse assessed as inhibition of tumor growth at 20 mg/kg,ip pre-treated with paclitaxel measured after 23 days. The data set is classed as functional. The following applies: 552 h, time 23 day.
The target of data set [7] is T1, ATP-dependent translocase ABCB1. The data set is described as follows: Negative allosteric modulator activity at P-glycoprotein in human KBV cells assessed as effect on P-gp protein expression level at 10 uM incubated for 72 hrs by Western blotting analysis. The format is cell-based.
Another data set relates to KBV. Description: Chemo-sensitizing activity against Ptx-resistance human KBV cells xenografted in BALB/c mouse assessed as inhibition of tumor growth at 20 mg/kg,ip measured after 23 days. To be noted: time 23.0 day. The data set is classed as functional, organism-based.
Data set [8] addresses T1, ATP-dependent translocase ABCB1. Description: Negative allosteric modulator activity at P-glycoprotein mediated Rhodamine-123 efflux in human KBV cells assessed as increase in intracellular Rhodamine-123 accumulation incubated for 2 hrs by flow cytometry analysis. The data set is classed as cell-based.

Active and inactive are the calls of the source. No cut-off for these calls is given here.

Turning to `CC(C)(O)[C@H]1CC[C@@](C)([C@H]2CC[C@]3(C)[C@@H]2[C@H](O)C[C@@H]2[C@@]4(C)CC[C@H](NC(=O)[C@@H]5CCCN5)C(C)(C)[C@@H]4CC[C@]23C)O1`, the Activity in [1] is recorded as 8.58%; in [4], “Dose-Dependent Effect”; in data set [5] it was 1%; in [7], “Not Active”; in [8], “Dose-Dependent Effect”. Moreover, the viability at 10 µM in data set [2] was found to be 30%. Further, in data set [3], the “fold change (FC)” value amounted to 21. The inhibition in vivo at 20 mg/kg in data set [6] came out at 58.1%. The outcome in the data set with KBV was inactive.

The record behind these values is ChEMBL document CHEMBL5331114, “Discovery of Pyxinol Amide Derivatives Bearing Amino Acid Residues as Nonsubstrate Allosteric Inhibitors of P-Glycoprotein-Mediated Multidrug Resistance” (J Med Chem, 2023).
